Measured values from PMC5218480 (PLoS ONE, 2017).

System: MV-4-11 cells
Test: Gene expression microarray analysis (Affymetrix PrimeView) and GSEA
Format: cell-based, human
Design: RFU PODN (11730768_x_at) / Fold change /veh PODN (11730768_x_at) / RFU LINC00158 (11744669_a_at) / Fold change /veh LINC00158 (11744669_a_at) / RFU DUSP10 (11751237_a_at) / Fold change /veh DUSP10 (11751237_a_at) / RFU ID3 (11757404_x_at) / Fold change /veh ID3 (11757404_x_at) / RFU PLEKHG5 (11737974_s_at) / Fold change /veh PLEKHG5 (11737974_s_at) / RFU LRRC4B (11730491_at) / Fold change /veh LRRC4B (11730491_at) / RFU GIMAP4 (11747438_a_at) / Fold change /veh GIMAP4 (11747438_a_at) / RFU KRT8 (11758183_x_at) / Fold change /veh KRT8 (11758183_x_at) / RFU CNN1 (11734310_a_at) / Fold change /veh CNN1 (11734310_a_at) / RFU VPS37D (11726825_at) / Fold change /veh VPS37D (11726825_at) / RFU C10orf10 (11716522_x_at) / Fold change /veh C10orf10 (11716522_x_at) / RFU KIR2DL2 /// KIR2DL4 /// KIR2DL5A /// KIR2DL5B /// KIR2DS1 /// KIR2DS2 /// KIR2DS3 /// KIR2DS4 /// KIR3DL3 /// KIR3DL3 /// KIR3DS1 (11738374_at) / Fold change /veh KIR2DL2 /// KIR2DL4 /// KIR2DL5A /// KIR2DL5B /// KIR2DS1 /// KIR2DS2 /// KIR2DS3 /// KIR2DS4 /// KIR3DL3 /// KIR3DL3 /// KIR3DS1 (11738374_at) / RFU C1QL1 (11718748_at) / Fold change /veh C1QL1 (11718748_at) / RFU TMPRSS4 (11747572_a_at) / Fold change /veh TMPRSS4 (11747572_a_at) / RFU HAMP (11756126_x_at) / Fold change /veh HAMP (11756126_x_at) / RFU RNFT2 (11725882_a_at) / Fold change /veh RNFT2 (11725882_a_at) / RFU NR4A2 (11747474_a_at) / Fold change /veh NR4A2 (11747474_a_at) / RFU ABCC12 (11746883_a_at) / Fold change /veh ABCC12 (11746883_a_at) / RFU TMEM136 (11760407_x_at) / Fold change /veh TMEM136 (11760407_x_at) / RFU CLDN22 /// WWC2 (11732394_at) / Fold change /veh CLDN22 /// WWC2 (11732394_at) / RFU HLA-DPB1 (11760878_x_at) / Fold change /veh HLA-DPB1 (11760878_x_at) / RFU SPINT1 (11716480_a_at) / Fold change /veh SPINT1 (11716480_a_at) / RFU GAP43 (11754022_s_at) / Fold change /veh GAP43 (11754022_s_at) / RFU A4GNT (11735810_at) / Fold change /veh A4GNT (11735810_at) / RFU PRB3 (11715151_x_at) / Fold change /veh PRB3 (11715151_x_at) / RFU TUBB4B (11761932_at) / Fold change /veh TUBB4B (11761932_at) / RFU CAPN14 (11732068_a_at) / Fold change /veh CAPN14 (11732068_a_at) / RFU TMCC2 (11721928_a_at) / Fold change /veh TMCC2 (11721928_a_at) / RFU IRGQ (11745062_a_at) / Fold change /veh IRGQ (11745062_a_at) / RFU FAM174B (11720279_a_at) / Fold change /veh FAM174B (11720279_a_at) / RFU TMPRSS4 (11748680_a_at) / Fold change /veh TMPRSS4 (11748680_a_at) / RFU FAM212B (11763350_a_at) / Fold change /veh FAM212B (11763350_a_at) / RFU PLEKHG5 (11743358_a_at) / Fold change /veh PLEKHG5 (11743358_a_at) / RFU ZSCAN30 (11745921_a_at) / Fold change /veh ZSCAN30 (11745921_a_at) / RFU CMKLR1 (11741424_a_at) / Fold change /veh CMKLR1 (11741424_a_at) / RFU LOC101060620 /// MAPK8IP1 (11723275_at) / Fold change /veh LOC101060620 /// MAPK8IP1 (11723275_at) / RFU SPTSSB (11747773_x_at) / Fold change /veh SPTSSB (11747773_x_at) / RFU PRSS12 (11739890_at) / Fold change /veh PRSS12 (11739890_at) / RFU BIN1 (11741810_x_at) / Fold change /veh BIN1 (11741810_x_at) / RFU WNT11 (11732464_a_at) / Fold change /veh WNT11 (11732464_a_at) / RFU C10orf10 (11716521_a_at) / Fold change /veh C10orf10 (11716521_a_at) / RFU C5orf56 (11738089_at) / Fold change /veh C5orf56 (11738089_at) / RFU CYB561 (11721691_x_at) / Fold change /veh CYB561 (11721691_x_at) / RFU ANKRD19P (11752326_a_at) / Fold change /veh ANKRD19P (11752326_a_at) / RFU OR2T12 /// OR2T33 /// OR2T8 (11738714_s_at) / Fold change /veh OR2T12 /// OR2T33 /// OR2T8 (11738714_s_at) / RFU VCAN (11748164_a_at) / Fold change /veh VCAN (11748164_a_at) / RFU JSRP1 (11732532_at) / Fold change /veh JSRP1 (11732532_at) / RFU KRTAP10-11 (11738290_x_at) / Fold change /veh KRTAP10-11 (11738290_x_at) / RFU MYO3A (11730013_a_at) / Fold change /veh MYO3A (11730013_a_at) / RFU EBF3 (11725865_a_at) / Fold change /veh EBF3 (11725865_a_at) / RFU CAMK2N1 (11719241_x_at) / Fold change /veh CAMK2N1 (11719241_x_at) / RFU C5orf56 (11738088_a_at) / Fold change /veh C5orf56 (11738088_a_at) / RFU OLFML3 (11715873_a_at) / Fold change /veh OLFML3 (11715873_a_at) / RFU LOC100653217 /// NTM (11731650_a_at) / Fold change /veh LOC100653217 /// NTM (11731650_a_at) / RFU MAPK11 (11762145_a_at) / Fold change /veh MAPK11 (11762145_a_at) / RFU FIZ1 (11724087_x_at) / Fold change /veh FIZ1 (11724087_x_at) / RFU OASL (11726364_x_at) / Fold change /veh OASL (11726364_x_at) / RFU SOX15 (11748057_x_at) / Fold change /veh SOX15 (11748057_x_at) / RFU CD79A (11719716_a_at) / Fold change /veh CD79A (11719716_a_at) / RFU HIST1H1D (11736915_at) / Fold change /veh HIST1H1D (11736915_at) / RFU CASKIN2 (11723855_a_at) / Fold change /veh CASKIN2 (11723855_a_at) / RFU LOC730098 (11760151_x_at) / Fold change /veh LOC730098 (11760151_x_at) / RFU OR4N2 (11742367_at) / Fold change /veh OR4N2 (11742367_at) / RFU PRRT2 (11749266_a_at) / Fold change /veh PRRT2 (11749266_a_at) / RFU SNX32 (11753110_a_at) / Fold change /veh SNX32 (11753110_a_at) / RFU CDHR5 (11726645_a_at) / Fold change /veh CDHR5 (11726645_a_at) / RFU RCAN1 (11760418_a_at) / Fold change /veh RCAN1 (11760418_a_at) / RFU FAM167A (11723789_a_at) / Fold change /veh FAM167A (11723789_a_at) / RFU FAM26E (11764081_at) / Fold change /veh FAM26E (11764081_at) / RFU ISYNA1 (11749810_s_at) / Fold change /veh ISYNA1 (11749810_s_at) / RFU ACY1 (11761880_at) / Fold change /veh ACY1 (11761880_at) / RFU 11764098_at / Fold change /veh 11764098_at / RFU SAMD14 (11745864_x_at) / Fold change /veh SAMD14 (11745864_x_at) / RFU NPB (11741838_a_at) / Fold change /veh NPB (11741838_a_at) / RFU TMPRSS6 (11731388_a_at) / Fold change /veh TMPRSS6 (11731388_a_at) / RFU KRTAP10-2 (11738614_at) / Fold change /veh KRTAP10-2 (11738614_at) / RFU ARHGAP8 /// PRR5-ARHGAP8 (11727945_x_at) / Fold change /veh ARHGAP8 /// PRR5-ARHGAP8 (11727945_x_at) / RFU KRTAP5-7 /// NADSYN1 (11734609_at) / Fold change /veh KRTAP5-7 /// NADSYN1 (11734609_at) / RFU RASL12 (11751679_a_at) / Fold change /veh RASL12 (11751679_a_at) / RFU CDKN2B (11736163_a_at) / Fold change /veh CDKN2B (11736163_a_at) / RFU PRF1 (11729649_at) / Fold change /veh PRF1 (11729649_at) / RFU, ZNF638 /// ZNF638-IT1 / Fold change vs veh, ZNF638 /// ZNF638-IT1 / RFU, PANK3 / Fold change vs veh, PANK3 / RFU, SH3YL1 / Fold change vs veh, SH3YL1 / RFU, ZEB2 / Fold change vs veh, ZEB2 / RFU, NRIP1 / Fold change vs veh, NRIP1 / RFU, PTTG1IP / Fold change vs veh, PTTG1IP / RFU, CAPN2 / Fold change vs veh, CAPN2 / RFU, MED14 / Fold change vs veh, MED14 / RFU, SNORA58 / Fold change vs veh, SNORA58 / RFU, C1orf63 / Fold change vs veh, C1orf63 / RFU, LRRFIP1 / Fold change vs veh, LRRFIP1 / RFU, NDUFAF7 / Fold change vs veh, NDUFAF7 / RFU, SLC12A2 / Fold change vs veh, SLC12A2 / RFU, IBTK / Fold change vs veh, IBTK / RFU, ESF1 / Fold change vs veh, ESF1 / Fold change vs veh, TMEM50B / RFU, TAOK1 / Fold change vs veh, TAOK1 / RFU, ACBD3 / Fold change vs veh, ACBD3 / RFU, TMA16 / Fold change vs veh, TMA16 / RFU, RWDD3 / Fold change vs veh, RWDD3 / RFU, BCAT1 / Fold change vs veh, BCAT1 / RFU, EDEM3 / Fold change vs veh, EDEM3 / RFU, TMEM33 / Fold change vs veh, TMEM33 / RFU, WDR75 / Fold change vs veh, WDR75 / RFU, AHCTF1 / Fold change vs veh, AHCTF1 / RFU, TFRC / Fold change vs veh, TFRC / RFU, ZDHHC17 / Fold change vs veh, ZDHHC17 / RFU, NOM1 / Fold change vs veh, NOM1 / RFU, ARL8B / Fold change vs veh, ARL8B / RFU, ZBTB11 / Fold change vs veh, ZBTB11 / RFU, TAMM41 / Fold change vs veh, TAMM41 / RFU, KIAA1704 /// LOC100996395 / Fold change vs veh, KIAA1704 /// LOC100996395 / RFU, ING1 / Fold change vs veh, ING1 / RFU, TRMT61B / Fold change vs veh, TRMT61B / RFU, FUBP3 / Fold change vs veh, FUBP3 / RFU, TP53 / Fold change vs veh, TP53 / RFU, TNKS2 / Fold change vs veh, TNKS2 / RFU, ZFP14 / Fold change vs veh, ZFP14 / RFU, ACTR2 / Fold change vs veh, ACTR2 / RFU, PPP3R1 / Fold change vs veh, PPP3R1 / RFU, PIK3R1 / Fold change vs veh, PIK3R1 / RFU, HNRNPA1 / Fold change vs veh, HNRNPA1 / RFU, RNF170 / Fold change vs veh, RNF170 / RFU, ZNF28 / Fold change vs veh, ZNF28 / RFU, RNGTT / Fold change vs veh, RNGTT / RFU, OGT / Fold change vs veh, OGT / RFU, BRD1 / Fold change vs veh, BRD1 / RFU, MARS / Fold change vs veh, MARS / RFU, ZNF655 / Fold change vs veh, ZNF655 / RFU, FAHD1 / Fold change vs veh, FAHD1 / RFU, BDP1 / Fold change vs veh, BDP1 / RFU, LRRCC1 / Fold change vs veh, LRRCC1 / RFU, ARID1A / Fold change vs veh, ARID1A / RFU, ZNF146 / Fold change vs veh, ZNF146 / RFU, ZNF330 / Fold change vs veh, ZNF330 / RFU, GPN3 / Fold change vs veh, GPN3 / RFU, C9orf123 / Fold change vs veh, C9orf123 / RFU, N4BP2L2 / Fold change vs veh, N4BP2L2 / RFU, ARFIP1 / Fold change vs veh, ARFIP1 / RFU, FAM179B / Fold change vs veh, FAM179B / RFU, BCL10 / Fold change vs veh, BCL10 / RFU, UHRF1BP1L / Fold change vs veh, UHRF1BP1L / RFU, BET1 / Fold change vs veh, BET1 / RFU, CNOT2 / Fold change vs veh, CNOT2 / RFU, ZNF268 / Fold change vs veh, ZNF268 / Fold change vs veh, ZNF507 / RFU, DGCR2 / Fold change vs veh, DGCR2 / RFU, WDSUB1 / Fold change vs veh, WDSUB1 / Fold change vs veh, HSP90B1 /// MIR3652 / RFU, ADSS / Fold change vs veh, ADSS / RFU, GK / Fold change vs veh, GK / RFU, ZNF148 / Fold change vs veh, ZNF148 / RFU, TAF9 / Fold change vs veh, TAF9 / RFU, SLC1A5 / Fold change vs veh, SLC1A5 / RFU, SLMO2 / Fold change vs veh, SLMO2 / RFU, ABCC4 / Fold change vs veh, ABCC4 / RFU, LOC101060439 /// RAP1B / Fold change vs veh, LOC101060439 /// RAP1B / RFU, RFX7 / Fold change vs veh, RFX7 / RFU, GTPBP10 / Fold change vs veh, GTPBP10 / RFU, CNEP1R1 / Fold change vs veh, CNEP1R1 / RFU, BIVM-ERCC5 /// ERCC5 / Fold change vs veh, BIVM-ERCC5 /// ERCC5 / RFU, ILF3 / Fold change vs veh, ILF3 / RFU 11762660_at / Fold change /veh 11762660_at / RFU VCAN (11757783_s_at) / Fold change /veh VCAN (11757783_s_at) / RFU DDX43 (11728927_at) / Fold change /veh DDX43 (11728927_at) / RFU KRT8 (11758188_x_at) / Fold change /veh KRT8 (11758188_x_at) / RFU NKD1 (11759106_at) / Fold change /veh NKD1 (11759106_at) / RFU SRD5A1 (11742802_a_at) / Fold change /veh SRD5A1 (11742802_a_at) / RFU TPSAB1 /// TPSB2 (11721975_s_at) / Fold change /veh TPSAB1 /// TPSB2 (11721975_s_at) / RFU GSTM3 (11746129_a_at) / Fold change /veh GSTM3 (11746129_a_at) / RFU IL23R (11737362_x_at) / Fold change /veh IL23R (11737362_x_at) / RFU TMEM51 (11727254_a_at) / Fold change /veh TMEM51 (11727254_a_at) / RFU PIWIL2 (11732686_x_at) / Fold change /veh PIWIL2 (11732686_x_at) / RFU ORM1 (11744905_x_at) / Fold change /veh ORM1 (11744905_x_at) / RFU CCDC152 (11743942_at) / Fold change /veh CCDC152 (11743942_at) / RFU ECM1 (11717891_a_at) / Fold change /veh ECM1 (11717891_a_at) / RFU IL23R (11748794_a_at) / Fold change /veh IL23R (11748794_a_at) / RFU TNFAIP8L3 (11732012_x_at) / Fold change /veh TNFAIP8L3 (11732012_x_at) / RFU MBOAT4 (11741988_at) / Fold change /veh MBOAT4 (11741988_at) / RFU 11764193_at / Fold change /veh 11764193_at / RFU TMEM53 (11763286_at) / Fold change /veh TMEM53 (11763286_at) / RFU MAGEB2 (11727129_at) / Fold change /veh MAGEB2 (11727129_at) / RFU TMEM200A (11744735_a_at) / Fold change /veh TMEM200A (11744735_a_at) / RFU CCDC152 (11751479_a_at) / Fold change /veh CCDC152 (11751479_a_at) / RFU FAM211A (11726209_a_at) / Fold change /veh FAM211A (11726209_a_at) / RFU RGS16 (11746705_a_at) / Fold change /veh RGS16 (11746705_a_at) / RFU VCAN (11755009_s_at) / Fold change /veh VCAN (11755009_s_at) / RFU RHOB (11743442_s_at) / Fold change /veh RHOB (11743442_s_at) / RFU RGS16 (11720943_a_at) / Fold change /veh RGS16 (11720943_a_at) / RFU RGS16 (11720944_at) / Fold change /veh RGS16 (11720944_at) / RFU, VPS4B / Fold change vs veh, VPS4B / RFU, CREB1 / Fold change vs veh, CREB1 / RFU, DNAJC13 / Fold change vs veh, DNAJC13 / RFU, GNAQ / Fold change vs veh, GNAQ / RFU, CDK5R1 / Fold change vs veh, CDK5R1 / RFU, ZRANB3 / Fold change vs veh, ZRANB3 / RFU, CUL4A / Fold change vs veh, CUL4A / RFU, CCNY / Fold change vs veh, CCNY / RFU, UFL1 / Fold change vs veh, UFL1 / RFU, COG3 / Fold change vs veh, COG3 / RFU, DIAPH2 / Fold change vs veh, DIAPH2 / RFU, SKA2 / Fold change vs veh, SKA2 / RFU, AFF3 / Fold change vs veh, AFF3 / RFU, LMF1 / Fold change vs veh, LMF1 / RFU, IPO11 / Fold change vs veh, IPO11 / RFU, DFFB / Fold change vs veh, DFFB / RFU, FOXP1 / Fold change vs veh, FOXP1 / RFU, CARD8 / Fold change vs veh, CARD8 / RFU, STRN3 / Fold change vs veh, STRN3 / RFU, ADK / Fold change vs veh, ADK / RFU, RASSF2 / Fold change vs veh, RASSF2 / RFU, WIPF1 / Fold change vs veh, WIPF1 / RFU, LARP1B / Fold change vs veh, LARP1B / RFU, RASA1 / Fold change vs veh, RASA1 / RFU, RB1 / Fold change vs veh, RB1 / RFU, PPFIA1 / Fold change vs veh, PPFIA1 / RFU, MAT2A / Fold change vs veh, MAT2A / RFU, CCT5 / Fold change vs veh, CCT5 / RFU, WDR92 / Fold change vs veh, WDR92 / RFU, CUX1 / Fold change vs veh, CUX1 / RFU, TTC7A / Fold change vs veh, TTC7A / RFU, TMEM135 / Fold change vs veh, TMEM135 / RFU, DEPTOR / Fold change vs veh, DEPTOR / RFU, CPM / Fold change vs veh, CPM / RFU, DNAJB6 / Fold change vs veh, DNAJB6 / RFU, CACNA2D3 / Fold change vs veh, CACNA2D3 / RFU, DTX4 / Fold change vs veh, DTX4 / RFU, TFCP2 / Fold change vs veh, TFCP2 / RFU, GMCL1 /// GMCL1P1 / Fold change vs veh, GMCL1 /// GMCL1P1 / RFU, AEBP2 / Fold change vs veh, AEBP2 / RFU, SNHG1 /// SNORD22 /// SNORD25 /// SNORD26 /// SNORD27 /// SNORD28 /// SNORD29 /// SNORD31 / Fold change vs veh, SNHG1 /// SNORD22 /// SNORD25 /// SNORD26 /// SNORD27 /// SNORD28 /// SNORD29 /// SNORD31 / Fold change (Aza/veh), C12orf56 (ProbeSet 11735607_a_at) / Fold change (ACY-1035/veh), C12orf56 (ProbeSet 11735607_a_at) / Fold change (Aza/veh), FGFR1OP (ProbeSet 11751329_s_at) / Fold change (ACY-1035/veh), FGFR1OP (ProbeSet 11751329_s_at) / Fold change (Aza/veh), VPS36 (ProbeSet 11739960_a_at) / Fold change (ACY-1035/veh), VPS36 (ProbeSet 11739960_a_at) / RFU SYPL1 (11715823_x_at) / Fold change /veh SYPL1 (11715823_x_at) / RFU IGFBP7 (11715501_s_at) / Fold change /veh IGFBP7 (11715501_s_at) / RFU REEP3 (11722064_at) / Fold change /veh REEP3 (11722064_at) / RFU IGLL1 (11728026_x_at) / Fold change /veh IGLL1 (11728026_x_at): dose or concentration left out as unconfirmed
Details: ProbeSet 11762504_a_at; LIST D

Nc1ccc(-c2cccs2)cc1NC(=O)c1ccc2c(c1)cc(C1CC1)n2CCN1CCOCC1 [ACY-1035]
Fold change vs veh, ZRANB3: 0.86
